For one series, the system named is BAECs. In words: Cell survival, MTS assay, BAECs. In kind it is cell-based, bovine. The settings on record: BAEC, 24 h. As for the experimental part:
(A, B) RLM respiring on glutamate/malate at 37° C. were incubated with various concentrations of MitoG for 7 min in an oxygen electrode to measure coupled respiration (A) before ADP was added to measure phosphorylating respiration (B). Data are the percentage of the respiration rates of untreated controls (dashed lines). (C and D) C2C12 cells (C) or BAECs [Bovine Aortic Endothelial Cells; Cell Applications Inc, San Diego, Calif.] (D) were incubated with MitoG for 24 h and cell survival was then determined using the MTS assay. Data are expressed as a percentage of the untreated controls (dashed line). (E-H) BAECs were incubated with MitoG for 2 h at 37° C. and the cellular oxygen consumption rate (OCR) after the sequential additions of oligomycin, FCCP and antimycin A/rotenone were then measured using a Seahorse XF24 analyser. (E) OCR due to ATP synthesis, (F) OCR due to proton leak, (G) reserve capacity and (H) non-mitochondrial oxygen consumption. Results are means±S.E. of three independent experiments. *, P<0.05 or **, P<0.01 relative to untreated controls.
To assess cell viability, C2C12 cells or BAECs were seeded at a density of 10,000 cells/well and 40,000 cells/well, respectively, in 96-well plates. […] After 2 h absorbance was read at 490 nm in a plate reader (SpectraMax Plus 384, Molecular Devices). […]
(In general: Tetrazolium dyes change colour on reduction, which living cells bring about.)

Series [1] in a line: Reaction rate with methylglyoxal (UV/Vis and fluorometric kinetics). To be noted: 37° C., means±SE, n=3. As for the experimental part:
(A) The reactions between MitoG (100 μM) and 1,2-dicarbonyls (25 μM) at 37° C. were followed from the formation of the quinoxaline products at 345 nm. (B) Fluorimetric detection of the reaction between MitoG and methylglyoxal (40 μM each), and between MitoG and glyoxal (200 μM each) was observed by monitoring the quinoxaline products at excitation and emission wavelengths of 344 and 433 nm, respectively. The changes in fluorescence caused by MQE and QE formation was quantified from calibration curves constructed by plotting fluorescence (excitation and emission wavelengths of 344 and 433 nm, respectively) against known amounts of either quinoxaline and were linear up to at least 20 μM.
TPP-conjugated compounds were made up as 10 mM stock solutions in DMSO, flushed with argon and stored as aliquots at −20° C. […] The molar extinction coefficients were calculated from the absorbance at maximal absorption (λmax) for the compounds for solutions of known concentration. Reaction rates between MitoG and 1,2-dicarbonyls were determined from the initial linear slope over the first 30 s at the λmax for the formation of the relevant quinoxaline. Fluorescence spectra were obtained in 2.5 ml KCl buffer using a Shimadzu RF-301PC fluorimeter with slit widths of 3 nm. […]

Series [2] in a line: Competitive rate experiment for methylglyoxal monitored by 1H NMR. The settings on record: 0.12 mM, DMSO, 25° C.
Series [3] concerns RLM respiring on glutamate/malate. In words: Protection against dicarbonyl-induced respiratory depression in isolated RLM. The arrangement: species or system rat. The settings on record: 37° C. As for the experimental part:
Isolated RLM respiring on glutamate/malate were incubated with MitoG, methoxyphenylenediamine (MP) or butylTPP for 2 min, followed by 0.5 mM methylglyoxal or 5 mM glyoxal for 5 min. ADP was then added and the rate of oxygen consumption monitored at 37° C. (see FIGS. 12A & 12B). C2C12 cells were pre-treated with MitoG, methoxyphenylenediamine (MP) or butylTPP for 1 h before exposure to 1 mM methylglyoxal or 5 mM glyoxal (see FIGS. 12C & 12D). Following an overnight incubation, cell survival was determined using the MTS assay. Similar experiments were conducted in BAECs pre-treated with MitoG, MP or butylTPP. For all experiments, concentrations of methylglyoxal and glyoxal used were chosen based on results from studies conducted prior to the protection assays. In these prior studies, RLM or cells were exposed to a range of dicarbonyl concentrations, and the phosphorylating rates of respiration or cell survival were evaluated. The results of these earlier experiments are shown in insets, and dicarbonyl concentrations that had caused significant respiratory depression or cell death were chosen for use in the protection assays. Data for all groups were normalized against untreated controls. For RLM, the rate of respiration by untreated controls was taken to be 100%; for cells, cell survival of untreated controls was taken to be 100%. Results are expressed as mean±S.E. of three independent experiments. MitoG was protective against methylglyoxal-induced respiratory depression and both methylglyoxal- and glyoxal-induced cell death in C2C12 cells and BAECs. […] In FIG. 12 the symbols *, ** respectively indicate that P<0.05 or P<0.01 relative to dicarbonyl-only groups; and the symbols +, ++ respectively indicate that P<0.05 or P<0.01 relative to untreated controls.

Bounds are passed on as bounds.

Consider `Nc1ccc(OCCCCCC[P+](c2ccccc2)(c2ccccc2)c2ccccc2)cc1N` [MitoG, (6-(3,4-Diaminophenoxy)hexyl)triphenylphosphonium chloride], for which the “concentration above which cell viability decreased” value with BAECs was more than 50 µM. The “rate constant for reaction with methylglyoxal” value in series [1] was found to be 19 ± 1 M⁻¹ s⁻¹. Further, in series [2], the “reactivity relative to o-phenylenediamine for methylglyoxal” value was approximately 1.8 ×. Moreover, the “protection against methylglyoxal-induced respiratory depression” value in series [3] (0.5 mM methylglyoxal) is given as “protected against methylglyoxal-induced respiratory depression in isolated RLM in a dose-dependent manner”. For the same compound, the “protection against glyoxal-induced respiratory depression” value in series [3] (5 mM glyoxal) is listed as “did not prevent glyoxal damage”.
